Test system: human colon cancer cells (HCT-15)
Experiment: Anticancer effect in nude mice transplanted with human colon cancer cells (tumor volume)
Assay type: in vivo, BALB/C nude mice
Details: G2, 2 mg/kg abdominal, once in 2 days
Procedure: The anticancer effect of the inventive composition was tested at the Chemon Preclinical Research Center (approved by the KGLP) using a nude mouse transplanted with human colon cancer cells.
7-weeks-old specific pathogen free (SPF) athymic BALB/C nude mice (SLC Japan, Japan) were weighed and grouped to 6 groups, 10 per each group, as follows: negative control group (1), positive control group (1) and test groups (4). The mice were identified by the identification label of the cage and using ear punching.
The test groups were designed as in Table 1.
Colon cancer cells (HCT15) were thawed in a constant-temperature water bath of […] as soon as possible. After mixing well with 10 mL of RPMI1640 culture medium (Sigma Aldrich, USA), centrifuge was performed at 1000 rpm for 10 minutes. The resulting cell pellet was mixed well with 5 mL of RPMI1640 culture medium containing 10% fetal bovine serum (FBS), and the cells were cultured in a cell culture flask under the condition of 37° C. and 5% CO2. The cultured cancer cells were suspended in physiological saline to a concentration of 1×10^7 cells/mL and transplanted subcutaneously to the mice, 0.3 mL (3×10^6 cells) each.
The composition prepared in Example 1 was suspended at various concentrations in sterilized, distilled water for injection (Choongwae Pharma Corporation, Korea) as excipient, ground using a grinding machine (homogenizer), and orally administered to the mice at a dose of 75 mg/kg body weight (G3), 150 mg/kg body weight (G4) or 300 mg/kg body weight (G5), respectively, for 3 weeks, twice a day. Of the test groups, the pre-administration group (G6) had been orally administered with the composition at a dose of 300 mg/kg body weight for 3 weeks, twice a day, before the transplantation of the cancer cells. Following the transplantation of the cancer cells, they were administered in the same way for 3 weeks.
In the negative control group (G1), the excipient was orally administered for 3 weeks, twice a day, instead of the inventive anticancer composition. […] The doxorubicin solution was prepared by dissolving in the excipient by a method known in the art.
During the test, the mice were kept under the condition of 23±3° C. and relative humidity of 55±15%, and access to water and feed was allowed freely.
Tumor volume was measured on days 12, 15, 19 and 22 after the inoculation of the cancer cells. Length, width and height of the tumor were measured using a vernier caliper, and the tumor volume was calculated by the following equation: Tumor volume=(Length×Width×Height)÷2 The tumor volume measurement result is given in Table 2 (unit: mm^3).

COc1cccc2c1C(=O)c1c(O)c3c(c(O)c1C2=O)C[C@@](O)(C(=O)CO)C[C@@H]3O[C@H]1C[C@H](N)[C@H](O)[C@H](C)O1 [doxorubicin]
Tumor volume (Day 12): 29.3 ± 16.0 mm^3
Tumor volume (Day 15): 93.7 ± 65.9 mm^3
Tumor volume (Day 19): 149.0 ± 77.6 mm^3
Tumor volume (Day 22): 258.6 ± 160.1 mm^3
tumor inhibition effect ([1-(tumor volume of administered group/tumor volume of negative control group)]x100) (day 22): 59.5%

— US11684639B2, “Pharmaceutical composition for preventing and treating cell proliferative disease comprising mixture of feather of birds and scale of fish as an active ingredient” (priority 2007, dated 2023)
